# Laboratory results taken from US20070249540A1, “Methods for Inhibiting Proteasome and Heat Shock Protein 90” (priority 2004, published 2007).
# Legend:
# [1] = test system: MCF-7 breast cancer cells; experiment: Sensitization of MCF-7 breast cancer cells to the cytotoxic effects of Taxol; format: cell-based, human; conditions: MCF-7, 0.01 μM Taxol alone
# Experimental: Tumor cells are allowed to proliferate in the presence of an inhibitory agent for 48 to 96 hrs. At the end of the assay, tumor cell proliferation in the presence of the inhibitory agent is determined either by cell counting or BrdU incorporation and expressed as % of Control Proliferation, where the term “Control Proliferation” refers to tumor cell proliferation in the absence of any inhibitory or other agents.
# MCF-7 breast cancer cells were plated onto a 24-well plate at a density of 208,000 cells per well and allowed to adhere overnight. Subsequently, the cells were treated with 0.01 μM taxol, a concentration known to inhibit 50% of MCF-7 cell proliferation. 6 hrs after the addition of taxol, half of the wells received 0.001 μM SEQ ID NO: 2. […] Cell proliferation of control (untreated) MCF-7 cells and MCF-7 cells treated either with Taxol or SEQ ID NO: 2 alone or with the combination of Taxol and SEQ ID NO: 2 was determined.
# [2] = test system: MCF-7 breast cancer cells; conditions: 0.01 μM taxol, stated as known; cited from earlier work
smiles,measurement,setting,value
CC(=O)O[C@H]1C(=O)[C@@]2(C)[C@H]([C@H](OC(=O)c3ccccc3)[C@]3(O)C[C@H](OC(=O)[C@H](O)[C@@H](NC(=O)c4ccccc4)c4ccccc4)C(C)=C1C3(C)C)[C@]1(OC(C)=O)CO[C@@H]1C[C@@H]2O [Taxol],% Control Proliferation,[1],52%
same,inhibition of MCF-7 cell proliferation,[2],50%
